Experimental findings from patent US9982232B2, “Methods of generating cells with multilineage potential” (NEWSOUTH INNOVATIONS PTY LIMITED, priority 2012, dated 2018) are described below.

Common to all, as to assay type: cell-based, mouse
Assay [1] has as its system in vitro differentiated bone, cartilage and fat cells. In words: CFU-F colony formation and replating of in vitro derived bone, cartilage and fat cells cultured with cytokines with and without AZA. Conditions: for colony forming potential (CFU-F): cells maintained 12 days in MSC culture medium with supplement. The method, then:
(§1) In vitro differentiated bone, cartilage, fat and long-bone derived osteocytes were first cultured in MSC medium (αMEM+20% FCS+P/S/G) with or without 10 μM 5′Azacitidine (Tocris Biosciences) and with or without cytokine (50 or 100 ng/ml Pdgf-AA or Pdgf-BB or Pdgf-AB, 10 ng/ml bFgf, 20 ng/ml HGF, 10 ng/ml Igf-1 and 10 ng/ml Vegf for 2 days and then cultured in MSC media with or without cytokine for 10 days. In order to investigate the reprogramming cell signalling pathways, inhibitors were added to the reprogramming cocktail from day 1 and kept for 12 days. Media was refreshed every 3-4 days. At the end of day 12 cells were harvested for downstream analysis.
CFU-Fs, oCFU-Fs, cCFU-Fs and aCFU-Fs were expanded in bulk culture after plating 10,000 cells per T75 flask. Resulting cells were split every 8 days. CFU-F and oCFU-F colonies were isolated individually using cloning cylinders (‘O” rings) (Sigma-Aldrich) and CFU-F clones (micro, small and large) and Osteocyte oCFU-F clones (micro, small and large) were pooled individually as micro (MC), small (SC) and large (LC) colonies and cultured first in T25 flask for 12 days and then from passage 2 onwards in T75 flask for 12 days. Cumulative cells numbers were calculated and plotted (log 10 scale). Micro, small and large colony's 2ry, 3ry and 4ry colony formation was evaluated by plating single cell from individual colonies into 96 well plates. In order to investigate differences in proliferative capacity of reprogrammed cells compared with primary CFU-Fs, cells were plated on RTCA resistor plate 96 (Roche Diagnostics) (200 cells/well) and recorded using XCELLigence (ACEA Biosciences) every 15 mins for 8 days.
To test whether lineage committed mesodermal cells could be induced to proliferate, bone marrow CFU-Fs (Colony Forming Units-Fibroblast) were harvested from mice, and following in vitro differentiation into bone, cartilage and fat cells, cultured them with different cytokines with and without AZA.
To assess and compare clonal vigour of replated cells, the inventors have developed a system to classify CFU-Fs based on cell number and size (Chong et al., 2011).

In assay [2] the test system is primary osteoblasts. In words: Surface Pdgf receptor expression and signalling protein levels in primary osteoblasts. The note with it: within 48 hours of exposure. The protocol:
Cell pellets were lysed in non-denaturing lysis buffer containing Complete Protease inhibitor cocktail (Roche) and PhosStop (Roche), followed by brief sonication using Bioruptor (Diagenode). The supernatant of the whole-cell extracts were loaded onto NuPage 4-12% Bis-Tri Gel (Life Technology) and transferred using iBlot Gel Transfer Kit (Nitrocellulose, Life Technology) according to the manufacturers instructions. Densitometry was performed using GE ImageQuant TL Software Version 7.0.
Active Pdgf isoforms stimulate cells by binding to and activating signalling by dimerization of two distinct, but structurally related, membrane bound receptor tyrosine kinases; Pdgf receptor-α (Pdgfrα) and Pdgf receptor-β (Pdgfrβ). Pdgf-BB has a greater binding affinity for Pdgfrβ but can also bind Pdgfrα whereas Pdgf-AA interacts only with Pdgfrα. Therefore, Pdgf-AA induces αα-receptor homodimers, PDGF-AB, both αα-receptor homodimers and αβ-receptor heterodimers and Pdgf-BB, all three dimeric combinations of α and β receptors, however in vivo binding of PDGF-AB is not known. Primary osteoblasts express Pdgfrβ but not Pdgfrα. […] These included expression of Pdgf receptors α and β, and components of the Jak/Stat and Jnk/c-Jun pathways but not the PI3kinase pathway. […]

Assay [3] deals with primary osteoblasts. Briefly: Inhibitor studies: PDGF-AB/AZA mediated oCFU-F production from primary osteoblasts. The note with it: inhibitor in reprogramming cocktail from day 1 for 12 days. The protocol: as §1
Active Pdgf isoforms stimulate cells by binding to and activating signalling by dimerization of two distinct, but structurally related, membrane bound receptor tyrosine kinases; Pdgf receptor-α (Pdgfrα) and Pdgf receptor-β (Pdgfrβ). Pdgf-BB has a greater binding affinity for Pdgfrβ but can also bind Pdgfrα whereas Pdgf-AA interacts only with Pdgfrα. Therefore, Pdgf-AA induces αα-receptor homodimers, PDGF-AB, both αα-receptor homodimers and αβ-receptor heterodimers and Pdgf-BB, all three dimeric combinations of α and β receptors, however in vivo binding of PDGF-AB is not known. Primary osteoblasts express Pdgfrβ but not Pdgfrα. […]

In assay [4] the test system is osteocytes from long bones of Pdgfrα-H2B:GFP mice. In words: Reprogramming of primary osteocytes from Pdgfrα-H2B:GFP mice (CFU-F assays, flow cytometry). The method, then: Osteocytes were isolated from long bones of either wild-type C57BL/6 or Pdgfra-nGFP mice. The mice were sacrificed at 8-16 weeks of age. Tibias and femurs were removed, cleaned of soft tissues and transferred to ice cold PBS. Bone marrow was flushed out with 2% FCS in PBS and bones were crushed and cut into ˜200 μm-400 μm pieces using a mortar and pestle and scissors. Bone fragments were transferred into 5 ml of collagenase (Type II, 2 mg/ml) in PBS and placed on a water bath shaker at 37° C. for 30 min twice. Supernatant was collected and collagenase was inactivated with 10 ml of 2% FCS and 5 mM EDTA in PBS. Cells were collected through 40 μm cell strainer. Cells were stained for Seal, CD51, CD31, Lin/CD45 and Pdgfrα. These cells were FACS sorted for Sca1^−/CD31^−/Pdgfra-nGFP^−/Pdgfra-Protein^−/CD51^+ osteocytes. FACS sorted osteocytes and bone fragments were cultured independently in complete culture medium (DMEM+P/S/G+100 ug/ml of ascorbate+10% FCS). Cells were cultured at 37° C. and 5% CO2 in the incubator for 8-10 days. […]
To evaluate how primary lineage committed cells respond to PDGF-AB/AZA, the inventors harvested Lin^−, CD45^−/Sca1^−/CD31^−/Pdgfrα-nGFP^−/Pdgfrα^−/CD51^+ osteocytes from long bones of Pdgfrα-H2B:GFP mice. […] The emergence of CFU-F capacity in reprogrammed osteocytes was evaluated by replating cells for CFU-F assays from the end of day 1 onwards (FIG. 2A).
For orientation: In flow cytometry, cells or beads pass a laser one at a time.

With `Nc1ncn([C@@H]2O[C@H](CO)[C@@H](O)[C@H]2O)c(=O)n1` [AZA, Azacitidine, reference compound], in assay [1] (bone, cartilage and fat cells), the “serial passaging / replating of colonies” value is “could not be replated at all” and the “number of CFU-Fs generated at first passage” value (“number of CFU-Fs generated” below) was “also generated CFU-Fs at first passage”. For the same molecule, the “surface Pdgfrα protein expression on primary osteoblasts” value with primary osteoblasts [2] is recorded as “Pdgfrα protein expression was evident”.

With Vegf, in assay [1] (bone, cartilage and fat cells), the “number of CFU-Fs generated” value was “substantially lower than with PDGF-AB” and the “numbers of large colonies at first passage” value (“numbers of large colonies” below) was “few large colonies”. The “colony forming potential (CFU-F)” value in assay [1] is “either no or limited CFU-F potential”.

`COc1cc2ncc(-c3ccccc3)nc2cc1OC` [AG1296]: the “PDGF-AB/AZA mediated oCFU-F production from primary osteoblasts in presence of inhibitor” value with primary osteoblasts [3] is on record as “abolished”.

“Igf-1: insulin-like growth factor-1, tested with or without AZA”: in assay [1] (bone, cartilage and fat cells), the “number of CFU-Fs generated” value is listed as “substantially lower than with PDGF-AB” and the “numbers of large colonies” value is “few large colonies”. Besides, the “colony forming potential (CFU-F)” value in assay [1] is listed as “either no or limited CFU-F potential”.

B1: Pdgf-BB: platelet derived growth factor BB, tested with/without AZA (protein, UniProt P31240 82-190, looked up)
Platelet-derived growth …: SLGSLAAAEPAVIAECKTRTEVFQISRNLIDRTNANFLVWPPCVEVQRCSGCCNNRNVQCRASQVQMRPVQVRKIEIVRKKPIFKKATVTLEDHLACKCETIVTPRPVT
modifications: homodimer
notes: platelet derived growth factor BB, tested with/without AZA
In the case of B1, the “passaging of CFU-F colonies from treated osteocytes” value in assay [4] (12 days treatment) is “could not be passaged”. Further, in assay [4] (up to 12 days treatment), the “CFU-F capacity of treated osteocytes” value was “very limited CFU-F capacity”.

B2: bFgf: basic fibroblast growth factor, tested with or without AZA (protein, UniProt P15655 10-154, looked up)
Fibroblast growth factor 2: PALPEDGGAAFPPGHFKDPKRLYCKNGGFFLRIHPDGRVDGVREKSDPHVKLQLQAEERGVVSIKGVCANRYLAMKEDGRLLASKCVTEECFFFERLESNNYNTYRSRKYSSWYVALKRTGQYKLGSKTGPGQKAILFLPMSAKS
Consider B2, for which, in assay [1] (bone, cartilage and fat cells), the “number of CFU-Fs generated” value was “substantially lower than with PDGF-AB” and the “numbers of large colonies” value is “few large colonies”. Besides, the “colony forming potential (CFU-F)” value in assay [1] was “either no or limited CFU-F potential”.

B3: Hgf: hepatocyte growth factor, tested with or without AZA (protein, UniProt Q08048 33-495; Q08048 496-728, looked up)
Hepatocyte growth factor …: QKKRRNTLHEFKKSAKTTLTKEDPLLKIKTKKVNSADECANRCIRNRGFTFTCKAFVFDKSRKRCYWYPFNSMSSGVKKGFGHEFDLYENKDYIRNCIIGKGGSYKGTVSITKSGIKCQPWNSMIPHEHSFLPSSYRGKDLQENYCRNPRGEEGGPWCFTSNPEVRYEVCDIPQCSEVECMTCNGESYRGPMDHTESGKTCQRWDQQTPHRHKFLPERYPDKGFDDNYCRNPDGKPRPWCYTLDPDTPWEYCAIKTCAHSAVNETDVPMETTECIQGQGEGYRGTSNTIWNGIPCQRWDSQYPHKHDITPENFKCKDLRENYCRNPDGAESPWCFTTDPNIRVGYCSQIPKCDVSSGQDCYRGNGKNYMGNLSKTRSGLTCSMWDKNMEDLHRHIFWEPDASKLNKNYCRNPDDDAHGPWCYTGNPLIPWDYCPISRCEGDTTPTIVNLDHPVISCAKTKQLR
Hepatocyte growth factor beta …: VVNGIPTQTTVGWMVSLKYRNKHICGGSLIKESWVLTARQCFPARNKDLKDYEAWLGIHDVHERGEEKRKQILNISQLVYGPEGSDLVLLKLARPAILDNFVSTIDLPSYGCTIPEKTTCSIYGWGYTGLINADGLLRVAHLYIMGNEKCSQHHQGKVTLNESELCAGAEKIGSGPCEGDYGGPLICEQHKMRMVLGVIVPGRGCAIPNRPGIFVRVAYYAKWIHKVILTYKL
In the case of B3, in assay [1] (bone, cartilage and fat cells), the “number of CFU-Fs generated” value is “substantially lower than with PDGF-AB” and the “numbers of large colonies” value was “few large colonies”. Also, the “colony forming potential (CFU-F)” value in assay [1] was “either no or limited CFU-F potential”.
